Bridge positions count the residues as written; N and C are the ends. Ends that are not written are not given here. I, II: the chains in the order shown.
What was measured:
[1] = system: HIV specific T-cells; conditions: IMiD present during stimulation with dendritic cells presenting Gag- or Nef-specific peptides; cited from earlier work
[2] = system: Anti-C5/gp41 sera from BI400-B immunized rabbits; experiment: Competitive ELISA for rabbit sera after immunization with BI400-B; type: binding; conditions: antigen 10-1000 μM preincubated with rabbit serum; FIG. 3
Procedure: 50-100 μl of a mixture of BI400-015 and -201 (pre-incubated in Coating buffer—0.05M Na2CO3 pH9.6; denoted CB—in cold at 16 μg/ml for each peptide 1-3 days prior to coating) or just CB (background control) was used for coating wells in microtiter plates at 4° C. overnight. Plates were then washed 3× with washing buffer (PBS+1% v/v Triton-X100; denoted WB), followed by 2 h blocking at room temperature (RT) with 200 μl/well of blocking buffer (PBS+1% w/v BSA). Plates were then washed 3× with WB, followed by 1 h incubation at 37° C. with 60-100 μl/well of added rabbit serum samples (diluted 1:10-1:250 final concentration) preincubated together (4° C. overnight) with serial dilutions (ranging from 10-1000 μM final concentration) of 400-SEQ.B, BI400-015, BI400-201, BI400-204d, recombinant gp41 (Shin-Won Scientific, SWO 102 gp41), BI301-23 (irrelevant protein; control), no peptide (i.e. PBS; control), LTNP-sera pools (diluted 1:10 final concentration), or Blood donor sera-pools (diluted 1:10 final concentration; control). Plates were then washed 6× with WB, followed by 1 h incubation at RT with 70 μl/well of Alkaline Phosphatase-conjugated Goat-anti-Rabbit-Ig (6 μg/ml; Dako D0487). […] Plates were finally quenched by adding 100 μl/well of Quench solution (0.1M TRIS+0.1M EDTA+0.5M NaOH+0.01% w/v NaN3; pH14), followed by ELISA reader (ASYS UVM 340) at 550 nm.

[3] = Toxicity of the dipeptide in mice; type: in vivo, NMFI female mice; conditions: injection, 100 μg per kg bodyweight, 4 mg/ml in 0.9% NaCl
Procedure: The dipeptide of Example 20 was diluted in 0.9% NaCl to a test solution concentration of 4 mg/ml. The peptide was administered by injection to NMFI female mice in a dose of 100 μg per kg bodyweight.

Row | Compound | function of the T-cells [1] | inhibition of antibody binding to C5/gp41 (015/201) by antigen [2] | further results
1 | Nc1cccc2c1CN(C1CCC(=O)NC1=O)C2=O (centres unmarked) [Lenalidomide] | a number of improvements in the function of the T-cells | – | –
2 | 201: gp41 peptide (DRPEGIEEEGGERDR) [compound 201] | – | could be inhibited | –
3 | I: WIIPGLNPLVGGGKLYSPTSILCG-NH2 / II: KALGPGATLQTPWTACQGVG-NH2 (disulfide I:23-II:16) [Example 20] | – | – | toxicological effects [3]: No toxicological effects were observed
4 | Nc1cccc2c1C(=O)N(C1CCC(=O)NC1=O)C2=O (centres unmarked) [pomalidomide] | a number of improvements in the function of the T-cells | – | –
5 | GGAIVNGSLADDDIVI [204d, peptide derived from C2] | – | could be inhibited | –
